Entries after “also recorded” stand apart in the source; their conditions may differ. Where a SMILES comes first, the peptide text is derived from it. [ ]: non-standard residue; d: D form. The star is where a group is joined. 5FAM = O=C1OC2(c3ccc(O)cc3Oc3cc(O)ccc32)c2ccc(C(=O)*)cc21; Pro(cis-4-guanidino) = NC(N)=N[C@@H]1CN[C@H](C(=O)O)C1; Cha = N[C@@H](CC1CCCCC1)C(=O)O; Ahx = NCCCCCC(=O)O

One series has as its system MCF-7 cells. The series can be described thus: Confocal microscopy of live cells: cellular uptake and intracellular localization. It counts as cell-based. Particulars: live MCF-7 cells; for Cellular uptake and intracellular localization (confocal microscopy): 1 h, 37 °C, DMEM + 1% FBS; for Intracellular localization after 24 h rest (confocal microscopy, Figure S7): 1 h incubation at 37 °C, washing, 24 h rest in DMEM + 10 % FBS, concentration not given. The procedure:
MitoTracker Deep Red was used as a counter stain for mitochondria and Hoechst 33342 for the nucleus. […] To explore whether PPII-helicity is key for mitochondrial localization, we prepared peptide CF-Ahx-(ChaRR)3-NH2 with Arg instead of Gup residues. This control peptide features a flexible conformation as judged by CD spectroscopy (Figure S1B). […] These findings show the importance of the secondary structure of the CPP for subcellular organelle localization.
MCF-7 cells were seeded in a 8-μwell Ibidi plate at 25′000 cells/well in DMEM (100 μL, 10% FCS) and allowed to adhere overnight. The medium was removed, the cells were washed with PBS (200 μL, 1x) and incubated with the peptide solution at 20 μM, 10 μM, 5 μM or 2.5 μM in DMEM (200 μL, 1% FCS) for 1 h at 37 °C. The medium was removed, and the cells were washed with PBS (200 μL, 2x). MitoTracker Deep Red was distributed at 20 nM in DMEM (200 μL, 1% FBS) and the cells were incubated at 37 °C for 25 min. The medium was removed, and the cells were washed with PBS (200 μL, 2x). Hoechst333342 was distributed at 2 μM in DMEM (200 μL, 1% FBS) and the cells were incubated at 37 °C for 5 min. The cells were washed with PBS (200 μL, 2x), and FluoroBrite medium (200 μL) was added. The live cells were monitored on the confocal microscope at 37 °C, 5% CO2.
For the cells subjected to a 24 h rest period, the FluoroBrite medium was exchanged for DMEM (200 μL, 10% FBS) after the initial imaging, and the cells were kept in this medium for 24 h. The culture medium was then exchanged for FluoroBrite DMEM, and the cells were imaged again.
Fluorescence images of cells were collected using a Nikon Eclipse T1 (inverse) microscope equipped with a Yokogawa Confocal Scanner Unit CSU-W1-T2, containing a spinning disk (50 µm). The microscope is equipped with two EMCCD Andor iXon Ultra cameras. Emission in the blue channel (405 nm) was filtered with a 450/50 bandpass filter, emission in the green channel (488 nm) was filtered with a 525/50 bandpass, and the emission in the red channel (641 nm) was filtered with a 708/75 bandpass filter. Fluorescence images were obtained using an oil-immersion objective with a magnification of 100 × 1.4 CFI Plan Apo Oil.
Each experiment was repeated at least three times. The images acquired were adjusted using ImageJ2 software. Correlation coefficients were determined on entire images using JaCOP plugin.1 […]
MCF-7 cells were seeded in a 8-µwell Ibidi plate at 25’000 cells/well in DMEM (100 µL, 10% FCS) and allowed to adhere overnight. The medium was removed. The cells were washed with PBS (200 µL, 1x) and incubated with the peptide solution at 20 µM, 10 µM, 5 µM, or 2.5 µM in DMEM (200 µL, 1% FCS) for 1 h at 37 °C. The medium was removed, and the cells were washed with PBS (200 µL, 2x).
For imaging of mitochondria, MitoTracker Deep Red was added as described in the manuscript. For imaging of endosomes/lysosomes, Ly s o Tr a c k e r Deep Red was added (200 µL, 20 nM in DMEM, 1% FBS) followed by incubation of the cells at 37 °C for 25 min. The medium was removed, and the cells were washed with PBS (200 µL, 2x). For imaging of the nucleus, Hoechst333342 was added at (200 µL, 2 µM in DMEM, 1% FBS) followed by incubation of the cells at 37 °C for 5 min. The cells were washed with PBS (200 µL, 2x), and FluoroBrite medium (200 µL) was added. The live cells were monitored on the confocal microscope […]
MCF-7 cells were seeded in a 96-well plate at 7’500 cells/well in cell culture medium (200 µL, 10% FCS), and allowed to adhere overnight. The medium was removed, the cells were washed with PBS (100 µL, 1x) and incubated with the peptide solution at 20 µM, 10 µM, 5 µM, or 2.5 µM in DMEM (200 µL, 1% FCS) for 1 h at 37 °C. The medium was removed, and the cells were washed with PBS (100 µL, 1x). The MTT solution in DMEM (110 µL, 1.2 mM, 1% FBS) was added. The cells were incubated for 3 h at 37 °C. The […]

Series [1] can be described thus: Stability of the peptides in cell lysate. The format is in vitro ADME. To be noted: 200 µM peptide, 37 °C, RP-HPLC at 488 nm; for Stability in MCF-7 cell lysate: MCF-7 cell lysate 1 mg/mL protein in PBS, time points 0 min, 1 h and 24 h. The protocol: MCF-7 cells were grown to confluency in a T-175 flask. Cells were washed with PBS (12 mL, 4 °C) and subsequently scraped off into PBS (7 mL, 4 °C) and collected in a Falcon tube. The suspension was then sonicated for 3 sec at an amplitude of 30% followed by a 30 sec rest period, and the procedure was repeated three time. The insoluble fraction was removed by centrifugation for 10 min at 12.000 rcf, at 4 °C and the supernatant was transferred to a new tube. […]
Stability of the peptides in cell lysate
The peptides were added (final concentration of 200 µM) to the MCF-7 cell lysate, with a protein concentration adjusted to 1 mg/mL with PBS. Immediately after addition of the peptide to the cell lysate, a sample (80 µL) was taken as the t = 0 min time point. The sample was diluted in MeCN (1:1), kept on ice for 5 min and centrifuged (12.000 rcf, 10 min, 4 °C). The supernatant was filtered and analyzed by analytical RP-HPLC (at 488 nm) using the standard conditions (gradient 70 % to 45 % of B over 20 min at 25 °C).
The stability of the peptides was monitored at time points 0 min, 1 h and 24 h.

Where [2] appears, read: concentration not stated at the place or given within the value.

As for CF-Ahx-(ChaZZ)3-NH2, the “Cellular uptake and intracellular localization (confocal microscopy)” value in the series on MCF-7 cells (5 μM peptide) was “low uptake; also recorded: no fluorescence was visible; also recorded: minimal fluorescence”; with MCF-7 cells (10 μM peptide, MitoTracker Deep Red and Hoechst 33342 counterstain), “localizes in the mitochondria; also recorded: localized in the mitochondria as well as in the cytoplasm and the nucleoli”; in the series on MCF-7 cells (setting [2]) it was “localized in the cytoplasm, the nucleoli, and the mitochondria at concentrations of 10 μM and higher”. In the series with MCF-7 cells, the “Intracellular localization after 24 h rest (confocal microscopy, Figure S7)” value is reported as “localized predominantly in the mitochondria”. Also, the “Stability in MCF-7 cell lysate” value in series [1] is on record as “stable”.
Take CF-Ahx-(ChaZZ)2-Cha-NH2: the “Cellular uptake and intracellular localization (confocal microscopy)” value in the series on MCF-7 cells (20 μM peptide) is “strong mitochondrial colocalization at 20 μM (Figure D) with limited endosomal entrapment”; with MCF-7 cells (setting [2]), “localized in mitochondria and the cytoplasm”. Moreover, the “Intracellular localization after 24 h rest (confocal microscopy, Figure S7)” value in the series with MCF-7 cells was “localized in the cytoplasm as punctuated fluorescence and remains slightly in the mitochondria”. The “Stability in MCF-7 cell lysate” value in series [1] is recorded as “degraded in the MCF-7 cell lysate over time”.
Consider `N=C(N)N[C@H]1C[C@@H](C(=O)N2C[C@@H](NC(=N)N)C[C@H]2C(=O)N[C@@H](CC2CCCCC2)C(=O)N2C[C@@H](NC(=N)N)C[C@H]2C(=O)N2C[C@@H](NC(=N)N)C[C@H]2C(=O)N[C@@H](CC2CCCCC2)C(=O)N2C[C@@H](NC(=N)N)C[C@H]2C(=O)N2C[C@@H](NC(=N)N)C[C@H]2C(=O)N[C@@H](CC2CCCCC2)C(N)=O)N(C(=O)[C@H](CC2CCCCC2)NC(=O)CCCCCNC(=O)c2ccc3c(c2)C(=O)OC32c3ccc(O)cc3Oc3cc(O)ccc32)C1` [(ChaZZ)3-Cha, CF-Ahx-(ChaZZ)3-Cha-NH2] ({5FAM-Ahx}-[Cha][Pro(cis-4-guanidino)][Pro(cis-4-guanidino)][Cha][Pro(cis-4-guanidino)][Pro(cis-4-guanidino)][Cha][Pro(cis-4-guanidino)][Pro(cis-4-guanidino)][Cha]-NH2), for which the “Cellular uptake and intracellular localization (confocal microscopy)” value in the series on MCF-7 cells (5 μM peptide) is “intracellular localization”; in the series on MCF-7 cells (setting [2]), “localized in mitochondria, endosomes, and the plasma membrane; also recorded: localized in the mitochondria and not the nucleus but was also trapped in endosomes”. Besides, in the series with MCF-7 cells, the “Intracellular localization after 24 h rest (confocal microscopy, Figure S7)” value was “localized predominantly in the mitochondria”. The metabolised at 24 h in series [1] (human, cells or culture medium, lysate 1 mg/mL protein in PBS, after 24 h incubation, read-out: Fraction degraded in MCF-7 cell lysate) was roughly 6%.

The record behind these values is PMC12455572, “Amphipathic Proline-Rich Cell Penetrating Peptides for Targeting Mitochondria” (ACS Chemical Biology, 2025).
